Reference: PubChem BioAssay (NCI)
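A five-concentration, 48-hour dose response in 96-well plates underlies each endpoint, interpolated linearly between surrounding concentrations. Abbreviation: GI50, concentration required for 50% inhibition of growth. The concentration for full growth arrest is given as TGI.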

Experiments:
Test in all cases: NCI anticancer screen, dose series, 48 h
[1] = test system: COLO 205 colon
[2] = test system: MALME-3M melanoma
[3] = test system: SK-MEL-28 melanoma
[4] = test system: MDA-MB-231 breast
[5] = test system: UACC-257 melanoma
[6] = test system: UO-31 renal
[7] = test system: SK-MEL-5 melanoma
[8] = test system: PC-3 prostate
[9] = test system: 786-0 renal
[10] = test system: HS 578T breast
[11] = test system: RPMI-8226 leukemia
[12] = test system: M14 melanoma
[13] = test system: OVCAR-8 ovarian
[14] = test system: NCI-H522 lung
[15] = test system: SNB-19 CNS
[16] = test system: A549 NSCLC
[17] = test system: HCC-2998 colon
[18] = test system: HCT-116 colon
[19] = test system: NCI-H226 lung
[20] = test system: NCI-H23 lung
[21] = test system: SK-MEL-2 melanoma
[22] = test system: SW-620 colon
[23] = test system: OVCAR-5 ovarian
[24] = test system: HCT-15 colon
[25] = test system: NCI/ADR-RES ovarian
[26] = test system: MOLT-4 leukemia
[27] = test system: EKVX NSCLC
[28] = test system: SN12C renal
[29] = test system: SF-539 CNS
[30] = test system: SNB-75 CNS
[31] = test system: TK-10 renal
[32] = test system: HOP-62 NSCLC
[33] = test system: A498 renal
[34] = test system: RXF 393 renal
[35] = test system: HT29 colon
[36] = test system: HOP-92 NSCLC
[37] = test system: K-562 leukemia
[38] = test system: CCRF-CEM leukemia
[39] = test system: UACC-62 melanoma
[40] = test system: U251 CNS
[41] = test system: SR leukemia
[42] = test system: OVCAR-4 ovarian
[43] = test system: T-47D breast
[44] = test system: MCF7 breast
[45] = test system: IGROV1 ovarian
[46] = test system: BT-549 breast
[47] = test system: KM12 colon
[48] = test system: CAKI-1 renal
[49] = test system: MDA-MB-435
[50] = test system: OVCAR-3 ovarian
[51] = test system: DU-145 prostate
[52] = test system: LOX IMVI melanoma
[53] = test system: SF-295 CNS
[54] = test system: ACHN renal
[55] = test system: SF-268 CNS
[56] = test system: SK-OV-3 ovarian
[57] = test system: HL-60(TB) leukemia
[58] = test system: NCI-H460 lung
[59] = test system: MDA-N

## CC(C)NC(=O)OCc1c(COC(=O)NC(C)C)c(-c2ccc(Cl)cc2)n2c1CCC2
[1]
  GI50: 4.26 µM
  TGI: 17.1 µM
[2]
  GI50: 2.36 µM
  TGI: 9.69 µM
[3]
  GI50: 7.52 µM
  TGI: 22.2 µM
[4]
  GI50: 2.96 µM
  TGI: 12.3 µM
[5]
  GI50: 4.16 µM
  TGI: 29.4 µM
[6]
  GI50: 2.05 µM
  TGI: 6.8 µM
[7]
  GI50: 5.21 µM
  TGI: 18.3 µM
[8]
  GI50: 3.32 µM
  TGI: 25.2 µM
[9]
  GI50: 2.75 µM
  TGI: 8.68 µM
[10]
  GI50: 2.91 µM
  TGI: 11.8 µM
[11]
  GI50: 2.6 µM
  TGI: 23.8 µM
[12]
  GI50: 2.99 µM
  TGI: 11.1 µM
[13]
  GI50: 4.1 µM
  TGI: > 85.5 µM
[14]
  GI50: 1.77 µM
  TGI: 5.66 µM
[15]
  GI50: 4.65 µM
  TGI: 21.7 µM
[16]
  GI50: 8.12 µM
  TGI: 33.5 µM
[17]
  GI50: 6.77 µM
  TGI: 20.4 µM
[18]
  GI50: 3.54 µM
  TGI: 17.5 µM
[19]
  GI50: 2.31 µM
  TGI: 11.3 µM
[20]
  GI50: 2.15 µM
  TGI: 12.5 µM
[21]
  GI50: 4.23 µM
  TGI: 17.4 µM
[22]
  GI50: 3.35 µM
  TGI: 19.2 µM
[23]
  GI50: 3.3 µM
  TGI: 13.5 µM
[24]
  GI50: 4.07 µM
  TGI: > 50.1 µM
[25]
  GI50: 3.05 µM
  TGI: 16.8 µM
[26]
  GI50: 1.42 µM
  TGI: > 26.2 µM
[27]
  GI50: 4.09 µM
  TGI: 32.9 µM
[28]
  GI50: 2.29 µM
  TGI: 15.4 µM
[29]
  GI50: 2.53 µM
  TGI: 9.72 µM
[30]
  GI50: 1.7 µM
  TGI: 8.44 µM
[31]
  GI50: 1.98 µM
  TGI: 7.97 µM
[32]
  GI50: 3.05 µM
  TGI: 16.2 µM
[33]
  GI50: 1.92 µM
  TGI: 4.46 µM
[34]
  GI50: 1.85 µM
  TGI: 4.32 µM
[35]
  GI50: 4.02 µM
  TGI: 26.4 µM
[36]
  GI50: 1.41 µM
  TGI: 5.09 µM
[37]
  GI50: 2.65 µM
  TGI: > 26.1 µM
[38]
  GI50: 1.04 µM
  TGI: > 33.4 µM
[39]
  GI50: 2.08 µM
  TGI: 7.56 µM
[40]
  GI50: 2.88 µM
  TGI: 35.2 µM
[41]
  GI50: 0.218 µM
[42]
  GI50: 2.7 µM
  TGI: 14.3 µM
[43]
  GI50: 3.9 µM
  TGI: 20.9 µM
[44]
  GI50: 3.59 µM
  TGI: 33.4 µM
[45]
  GI50: 1.59 µM
  TGI: 10.2 µM
[46]
  GI50: 2.4 µM
  TGI: 15.1 µM
[47]
  GI50: 11 µM
  TGI: 25.9 µM
[48]
  GI50: 0.534 µM
  TGI: 3.83 µM
[49]
  GI50: 5.04 µM
  TGI: 19.8 µM
[50]
  GI50: 3.08 µM
  TGI: 10.3 µM
[51]
  GI50: 2.1 µM
  TGI: 7.18 µM
[52]
  GI50: 2.4 µM
  TGI: 13.6 µM
[53]
  GI50: 1.58 µM
  TGI: 10.6 µM
[54]
  GI50: 1.34 µM
  TGI: 9.19 µM
[55]
  GI50: 2.25 µM
  TGI: 13.5 µM
[56]
  GI50: 2.92 µM
  TGI: 12.5 µM
[57]
  GI50: 0.79 µM
  TGI: 9.21 µM
[58]
  GI50: 0.751 µM
  TGI: 14.4 µM

## COP(=O)(OC)C(Cc1c[nH]c2ccccc12)NC(=O)OCc1ccccc1 (stereo not drawn)
[1]
  TGI: > 100 µM
[3]
  TGI: > 100 µM
[4]
  TGI: > 100 µM
[5]
  TGI: > 100 µM
[6]
  TGI: > 100 µM
[7]
  TGI: > 100 µM
[8]
  TGI: > 100 µM
[10]
  TGI: > 100 µM
[11]
  TGI: > 100 µM
[12]
  TGI: > 100 µM
[13]
  TGI: > 100 µM
[14]
  TGI: > 100 µM
[15]
  TGI: > 100 µM
[16]
  TGI: > 100 µM
[17]
  TGI: > 100 µM
[18]
  TGI: > 100 µM
[19]
  TGI: > 100 µM
[20]
  TGI: > 100 µM
[21]
  TGI: > 100 µM
[22]
  TGI: > 100 µM
[23]
  TGI: > 100 µM
[24]
  TGI: > 100 µM
[25]
  TGI: > 100 µM
[28]
  TGI: > 100 µM
[30]
  TGI: > 100 µM
[31]
  TGI: > 100 µM
[32]
  TGI: > 100 µM
[33]
  TGI: > 100 µM
[59]
  TGI: > 100 µM
[35]
  TGI: > 100 µM
[36]
  TGI: > 100 µM
[37]
  TGI: > 100 µM
[38]
  TGI: 29.2 µM
[40]
  TGI: > 100 µM
[41]
  TGI: > 100 µM
[42]
  TGI: > 100 µM
[43]
  TGI: > 100 µM
[44]
  TGI: > 100 µM
[45]
  TGI: > 100 µM
[48]
  TGI: > 100 µM
[49]
  TGI: > 100 µM
[50]
  TGI: > 100 µM
[51]
  TGI: > 100 µM
[52]
  TGI: > 100 µM
[53]
  TGI: > 100 µM
[54]
  TGI: > 100 µM
[56]
  TGI: > 100 µM
[57]
  TGI: > 100 µM
[58]
  TGI: > 100 µM

## O=c1cc(N2CCCC2)[nH]c(=O)n1-c1cccc(C(F)(F)F)c1
[1]
  TGI: > 100 µM
[2]
  TGI: > 100 µM
[4]
  TGI: > 100 µM
[5]
  TGI: > 100 µM
[8]
  TGI: > 100 µM
[9]
  TGI: > 100 µM
[10]
  TGI: > 100 µM
[11]
  TGI: > 100 µM
[12]
  TGI: > 100 µM
[13]
  TGI: > 100 µM
[14]
  TGI: > 100 µM
[15]
  TGI: > 100 µM
[17]
  TGI: > 100 µM
[18]
  TGI: > 100 µM
[19]
  TGI: > 100 µM
[20]
  TGI: > 100 µM
[21]
  TGI: > 100 µM
[22]
  TGI: > 100 µM
[23]
  TGI: > 100 µM
[24]
  TGI: > 100 µM
[25]
  TGI: > 100 µM
[26]
  TGI: > 100 µM
[27]
  TGI: > 100 µM
[28]
  TGI: > 100 µM
[29]
  TGI: > 100 µM
[30]
  TGI: > 100 µM
[31]
  TGI: > 100 µM
[32]
  TGI: > 100 µM
[33]
  TGI: > 100 µM
[59]
  TGI: > 100 µM
[34]
  TGI: > 100 µM
[35]
  TGI: > 100 µM
[36]
  TGI: > 100 µM
[37]
  TGI: > 100 µM
[38]
  TGI: > 100 µM
[39]
  TGI: > 100 µM
[40]
  TGI: > 100 µM
[42]
  TGI: > 100 µM
[43]
  TGI: > 100 µM
[44]
  TGI: > 100 µM
[45]
  TGI: > 100 µM
[46]
  TGI: > 100 µM
[47]
  TGI: > 100 µM
[48]
  TGI: > 100 µM
[49]
  TGI: > 100 µM
[50]
  TGI: > 100 µM
[51]
  TGI: > 100 µM
[52]
  TGI: > 100 µM
[53]
  TGI: > 100 µM
[54]
  TGI: > 100 µM
[55]
  TGI: > 100 µM
[56]
  TGI: > 100 µM
[57]
  TGI: > 100 µM
[58]
  TGI: > 100 µM
